Read-outs that look alike come from different tables or passages of the source.
How the values were obtained:
[1] = test system: eczema dermatitis; experiment: TARGRETIN as substitute for tacrolimus and steroids in eczema dermatitis; settings: in vivo
[2] = test system: melanoma; settings: single daily oral dose of 450 mg/m^2 in capsule form; cited from earlier work
[3] = test system: T-cell non-Hodgkin's lymphoma; experiment: TARGRETIN in patients with T-cell non-Hodgkin's lymphomas other than cutaneous T-cell lymphoma; type: in vivo, human
Experimental: Specifically, TARGRETIN was administered to a patient suffering from a post-transplant lymphoproliferative disorder type lymphoma. This is a T-cell non-Hodgkin's lymphoma related to organ transplantation. This patient had horrific lymphoma with involvement of their cerebral spinal fluid.
TARGRETIN was administered to a second patient suffering from a rare type of T-cell lymphoma, an angiocentric T-cell lymphoma.

[4] = test system: squamous cell carcinoma of the head and neck; settings: cited from earlier work
[5] = test system: non-small-cell lung carcinoma; settings: oral, in combination with cisplatin and vinorelbin, previously untreated patients; cited from earlier work
[6] = test system: NMU-induced mammary carcinomas; settings: rat; cited from earlier work
[7] = Tolerability of TARGRETIN dosing regimes in patients; type: in vivo, human
From the text: Further, by “effective amount” as used herein, it is meant a concentration of TARGRETIN administered by a selected route and dosing schedule which lessens or decreases severity of a symptom of the disease state or condition from which the patient is suffering and/or a concentration of TARGRETIN which increases neutrophil count in a patient and/or a concentration of TARGRETIN which increases the efficacy of a co-administered cancer chemotherapeutic agent. Such amounts can be routinely determined by those skilled in the art based upon the teachings herein as well as what is known in the art about TARGRETIN with respect to treatment of cutaneous T-cell lymphoma. […] Further, the Food and Drug Administration's approved dose for TARGRETIN in the treatment of cutaneous T-cell lymphoma is 300 mg/M^2. It is expected that similar dosages will also be effective in treating autoimmune diseases or disorders, and in particular graft versus host disease, as well as organ transplant rejection.

[8] = test system: acute myeloid leukemia (AML); type: in vivo
Experimental: In these studies, five patients with relapsed refractory AML were treated with TARGRETIN monotherapy.
The first patient had failed induction chemotherapy, had fungal pneumonia, and active leukemia with no immune system. This patient was sent home under hospice care, but given TARGRETIN to take orally in a pill formulation. Within a few months, this patient no longer needed hospice care and had returned to work. It is believed that upon administration of TARGRETIN, this patient was able to maintain an immune system, thereby clearing the fungal pneumonia and preventing further fatal infections.
The second patient was a heart transplant patient who developed AML and failed induction chemotherapy as well as a second line of chemotherapy. With active leukemia and no immune system they were placed on TARGRETIN. […] Upon escalation of the TARGRETIN dose it was observed that their neutrophil count continued to increase and the leukemia count dropped. This increase in neutrophil count and decrease in leukemia count continued with each dose escalation until the patient was taking six TARGRETIN capsules a day. […] This syndrome is a cell differentiation disorder wherein leukemia cells differentiate into normal immune cells. While this syndrome is good in that it boosts the immune system while decreasing the leukemia count, cytokines released by the differentiating neutrophils can cause a pulmonary syndrome. At six TARGRETIN capsules a day the second patient developed a syndrome exactly like that observed in ATRA administration. TARGRETIN treatment was stopped and within one week the neutrophil count dropped from 1500 to 200 and the pulmonary syndrome resolved. TARGRETIN treatment was then restarted at three capsules daily and the neutrophil count returned to 600. This patient continued treatment for an additional 9 months at which time they developed an infection and died. At the time of death their leukemia was still well under control.
The third patient had failed induction therapy and was suffering from active AML with disseminated intravascular coagulation (DIC), a blood clotting disorder relating to active leukemia. This patient was completely bed-ridden. It was believed that they could not tolerate further chemotherapy and was placed on TARGRETIN. […] They also developed a small number of immune cells and was able to return to their home where their physical condition continued to improve. This patient lived for approximately 4.5 months before they developed progressive leukemia. At that point they declined further therapy and expired.
The fourth patient had raging AML. This patient was placed on TARGRETIN but expired within 3 days of starting treatment. It is believed that the TARGRETIN treatment may have been started too late in the course of this patient's disease to provide an effect.
The fifth patient treated with TARGRETIN was suffering from a relapse after already having undergone an allogeneic bone marrow transplant, one of the most aggressive treatments possible for AML. […] This patient ultimately expired, however, from complications relating to their bone marrow transplant.

[9] = test system: refractory acute lymphocytic leukemia; experiment: TARGRETIN in combination with low dose chemotherapy in two patients with refractory acute lymphocytic leukemia; type: in vivo, human; settings: both patients
Experimental: In these experiments, two patients with refractory acute lymphocytic leukemia were treated with TARGRETIN in combination with low dose chemotherapy.

## C=C(c1ccc(C(=O)O)cc1)c1cc2c(cc1C)C(C)(C)CCC2(C)C [TARGRETIN]
[1]
  efficacy in eczema dermatitis: effective substitute for tacrolimus and steroids
[2]
  efficacy against melanoma: ineffective
[3]; patient with angiocentric T-cell lymphoma, prior bone marrow transplant failed
  duration of remission: in remission for three months
[3]; patient with post-transplant lymphoproliferative disorder type lymphoma, prior chemotherapy failed
  duration of remission: in remission for four months
[4]
  effect on proliferation: decrease
[5]
  response rate and survival: acceptable phase II response rates with better-than expected survival
[6]
  efficacy as chemopreventative and chemotherapeutic agent: efficacious
[7]; 100 to 150 mg per meter square of body surface area, ongoing clinical trials
  tolerability: well-tolerated
[7]; oral 2-3 capsules a day or 150 to 225 mg a day
  tolerability: without unwanted side effects
[8]; fifth patient, relapse after allogeneic bone marrow transplant
  immune response upon initiation of treatment: mounted an immune system response
[8]; first patient, oral pill formulation
  duration leukemia kept under control: kept under control for nine months
[8]; fourth patient, raging AML
  time to death after starting treatment: ≤ 3 days
[8]; human, in vivo
  adverse event: developed a pulmonary syndrome very similar to that seen in patients taking trans retinoic acid (ATRA)
[8]; second patient, after restart at three capsules daily
  additional duration of treatment, leukemia still well under control at death: 9 months
[8]; second patient, at six capsules a day, before treatment was stopped
  neutrophil count: 1500
[8]; second patient, treatment restarted at three capsules daily
  neutrophil count: 600
[8]; second patient, within one week after TARGRETIN treatment was stopped
  neutrophil count: 200
[8]; second patient, within one week of treatment
  change of neutrophil count and leukemia count after start of treatment: neutrophil count and/or immune system was rising and their leukemia count was dropping
[8]; terminal AML, TARGRETIN monotherapy
  patients exhibiting a positive response (increase in neutrophil count and/or decrease in leukemia count): 4 out of 5
[8]; third patient
  resolution of disseminated intravascular coagulation (DIC): resolved within four days
  time lived before progressive leukemia: approximately 4.5 months
[9]
  efficacy of combination treatment: significantly greater than expected

From US20050209335A1, “Methods for use of TARGRETIN in organ transplant rejection, autoimmune diseases and cancer” (priority 2004, published 2005)
